Holding throughout (format): cell-based, human
Test [1] concerns highly purified T cells stimulated by immobilized anti-CD3 mAb. As to the kind of experiment: CD3 assay: T-cell proliferation stimulated by anti-CD3 mAb + PMA (BrdU). The following applies: Table 1; anti-CD3 mAb + PMA 0.5 ng/ml, 48 h; read-out: CD 3 IC50. The source says:
(§1) Various models may be used for testing an immunosuppressive effect. In vivo, for example, different transplantation models are available. They are strongly influenced by different immunogenicities, depending on the donor and recipient species used and depending on the nature of the transplanted organ. The survival time of transplanted organs can thus be used to measure the suppression of the immune response. In vitro, the most used models are lymphocyte activation tests. Usually activation is measured via lymphocyte proliferation. Inhibition of proliferation thus always means immunosuppression under the experimental conditions applied. There exist different stimuli for lymphocyte activation: • a) co-culture of lymphocytes of […] (mixed lymphocyte reaction, hereinafter referred as MLR) in a so-called mixed lymphocyte culture test: lymphocytes expressing different minor and major antigens of the HLA-DR type (=alloantigens) activate each other non-specifically. • b) a CD3 assay here there is an activation of the T-lymphocytes via an exogenously added antibody (OKT3).
(§2) All reagents were dissolved in 0.5 ml dimethylsulfoxide (hereinafter referred as DMSO) and further diluted in culture medium before use for the following in vitro experiments. The commercially available culture medium consisted of RPMI-1640+10% foetal calf serum (FCS).
(§3) T cells were purified by removing non-T cells. Briefly, monocytes were removed by cold agglutination. The resulting lymphoid cells were further purified by a cell enrichment immunocolumn [Cellect Human T commercially available from Biotex, Edmonton, Alberta, Canada)] by a process of negative selection.
(§4) Highly purified T cells (10^6/ml) were stimulated by immobilized anti-CD3 or anti-CD28 monoclonal antibodies (hereinafter referred as mAb) in the presence of PMA. Anti-CD3 mAb (available from CLB, Amsterdam, Netherlands) were fixed on the 96-microwell plates by incubating the wells with 50 μl of mAb solution (1/800 dilution in culture medium). For anti-CD28 mAb (available from CLB, Amsterdam, Netherlands) 50 μl (1/650 dilution in culture medium) was added directly to the wells. Further, a 20 μl phorbol myristate acetate (hereinafter referred as PMA (commercially available from Sigma, St. Louis, Mo., USA) solution (final concentration: 0.5 ng/ml) was added. Subsequently, 20 μl of a compound described in some of the previous examples were added by serial dilution in triplicate wells. Finally 100 μl of the T-cell suspension (10^6/ml) was added. After 48-hour incubation at 37° C. in 5% CO2 20 μl of a bromo-deuridine (hereinafter referred as BrdU) 100 μM solution (commercially available as Cell Proliferation Elisa from Boehringer-Mannheim Belgium) was added to each well. After a further overnight incubation, T-cell proliferation was measured using a colorimetric immunoassay for qualification of cell proliferation based on the incorporation of BrdU during DNA synthesis. Optical density (hereinafter referred as OD) was measured by a Behring EL311 plate reader at 450 nm (reference wavelength: 690 nm). Inhibition of proliferation by a compound (drug) described in some of the previous examples was counted using the formula: [formula]

Test [2] has as its system peripheral blood mononuclear cells (PBMC) with allogeneic PBMC or RPMI1788 stimulator cells. As to the kind of experiment: Mixed lymphocyte reaction (MLR) test, [3H]-thymidine incorporation. The following applies: Table 1; 5 days incubation + 16 h thymidine.
Text: as §1, §2
Peripheral blood mononuclear cells (hereinafter referred as PBMC) were isolated from heparinized peripheral blood by density gradient centrifugation over Lymphoprep (Nycomed, Maorstua, Norway). Allogeneic PBMC or Eppstein-Barr Virus-transformed human B cells [commercially available under the trade name RPM11788 (ATCC name CCL156)] which strongly express B7-1 and B7-2 antigens were used as stimulator cells after irradiation with 30 Gy. MLR was performed in triplicate wells. After 5 days incubation at 37° C., 1 μCi [^3 H]-thymidine was added to each cup. After a further 16 hours incubation, cells were harvested and counted in a β-counter. Inhibition of proliferation by a compound (drug) described in some of the previous examples was counted using the formula: [formula] wherein cpm is the thymidine count per minute. Assays for CD3 and CD 28
For orientation: Dividing cells build labelled thymidine or BrdU into new DNA.

Test [3] deals with highly purified T cells stimulated by anti-CD28 mAb. As to the kind of experiment: CD28 assay: T-cell proliferation stimulated by anti-CD28 mAb + PMA (BrdU). The settings on record: Table 1; anti-CD28 mAb + PMA 0.5 ng/ml, 48 h.
Text: as §1, §2, §3, §4

Molecules are shown by their SMILES. Bounds are passed on as bounds.

As a reminder, the IC50 is the midpoint of a concentration-inhibition curve. Take `Cc1nc2c(nc1NCc1ccccc1)c(=O)n(C)c(=O)n2C` [Example 73, 6-benzylamino-1,3,7-trimethyl-lumazine]: the IC50 in test [1] came out at 92 µM; in test [2], 44 µM; in test [3] it was 128 µM.

Turning to `Cc1nc2c(nc1N1CCCC1)c(=O)n(C)c(=O)n2C` [Example 74, 6-pyrrolidinyl-1,3,7-trimethyl-lumazine], the results for the half-inhibitory concentration (IC50) in test [1], in test [2] and in test [3] were 92 µM, 140 µM and 128 µM, respectively.

On to `Cn1c(=O)c2nc(Cl)c(N3CCCCC3)nc2n(C)c1=O` [Example 75, 6-chloro-7-piperidyl-1,3-diimethyl-lumazine], for which the results for the IC50 in test [1], in test [2] and in test [3] were 80 µM, 160 µM and 80 µM, respectively.

Regarding `Cc1nc2c(=O)n(C)c(=O)n(C)c2nc1C=Cc1ccccc1` [Example 76, 7-(2-phenylethenyl)-1,3,6-trimethyl-lumazine], the IC50 in test [1] is 68 µM; in test [2], 120 µM; in test [3] it was 116 µM.

In the case of `Cn1c(=O)c2nc(C=Cc3ccc(C(F)(F)F)cc3)cnc2n(C)c1=O` [Example 77, 6-[2-(p-trifluoromethylphenyl)ethenyl]-1,3-dimethyllumazine], the IC50 was greater than 200 µM in test [1], 17 µM in test [2] and 140 µM in test [3].

As for `Cn1c(=O)c2nc(C=Cc3ccc(C(F)(F)F)cc3)cnc2n(C)c1=O` [Example 78, 6-[2-(p-trifluoromethylphenyl)ethenyl]-1,3-dimethyllumazine], the IC50 in test [1] was greater than 200 µM; in test [2], 17 µM; in test [3], 164 µM.

As for `Cn1c(=O)c2nc(C=Cc3ccccc3)cnc2n(C)c1=O` [Example 79, 6-[2-phenylethenyl]-1,3-dimethyllumazine], the IC50 was 104 µM in test [1], 17 µM in test [2] and greater than 200 µM in test [3].

For the origin of these results see patent US6946465B2, “Immunosuppressive effects of pteridine derivatives” (4 AZA Bioscience NV, priority 1999, dated 2005).
